Calls of active or inactive are those of the source. The rule behind the calls is not given here.
Legend:
SMMC-7721 [1] = test: Cytotoxicity against human SMMC7721 cells assessed as cell growth inhibition after 48 hrs by MTT assay; type: functional, cell-based; settings: SMMC-7721, 48 h
HepG2 [2] = test: Cytotoxicity against human HepG2 cells assessed as cell growth inhibition after 48 hrs by MTT assay; type: functional, cell-based; settings: HepG2, 48 h
[3] = Cytotoxicity against human QSG7701 cells assessed as cell growth inhibition after 48 hrs by MTT assay; type: cell-based; settings: QSG7701, 48 h
SMMC-7721 [4] = test: Inhibition of colony formation of human SMMC7721 cells up to 20 uM […] by crystal violet staining based colony formation assay; type: functional, cell-based
HepG2 [5] = test: Inhibition of colony formation of human HepG2 cells up to 20 uM […] by crystal violet staining based colony formation assay; type: functional, cell-based
SMMC-7721 [6] = test: Cytotoxicity against human SMMC7721 cells assessed as reduction in cell viability up to 20 uM after 24 to 72 hrs by MTT assay; type: functional, cell-based
[7] = Cytotoxicity against human QSG7701 cells assessed as reduction in cell viability up to 20 uM after 24 to 72 hrs by MTT assay; type: cell-based
SMMC-7721 [8] = test: Antimigratory activity against human SMMC7721 cells incubated for 24 hrs by transwell assay; type: functional, cell-based
Mus musculus [9] = test: Toxicity in Kunming mouse xenografted with […] cells assessed as effect on heart weight index at 3 mg/kg, iv dosed every day starting from day 8 after tumor cell inoculation; type: organism-based; settings: in vivo
Mus musculus [10] = test: Toxicity in Kunming mouse xenografted with […] cells assessed as effect on liver weight index at 3 mg/kg, iv dosed every day starting from day 8 after tumor cell inoculation; type: organism-based; settings: in vivo
Mus musculus [11] = test: Toxicity in Kunming mouse xenografted with […] cells assessed as effect on spleen weight index at 3 mg/kg, iv dosed every day starting from day 8 after tumor cell inoculation; type: organism-based; settings: in vivo
[12] = Drug uptake in human HepG2 cells assessed as PAT-mediated cellular uptake at 10 uM by HCS analysis; type: ADME, cell-based; settings: TDE = time-dependent effect
[13] = Drug uptake in human SMMC7721 cells assessed as PAT-mediated cellular uptake at 10 uM by HCS analysis; type: ADME, cell-based; settings: TDE = time-dependent effect
HepG2 [14] = test: Cytotoxicity against human HepG2 cells assessed as effect on cell viability at 5 to 20 uM after 24 hrs in absence of spermidine by MTT assay; type: functional, cell-based
HepG2 [15] = test: Cytotoxicity against human HepG2 cells assessed as effect on cell viability at 5 to 10 uM after 24 hrs in presence of spermidine by MTT assay; type: functional, cell-based
HepG2 [16] = test: Effect on ODC expression in human HepG2 cells at 5 to 20 uM after 24 hrs by Western blot analysis; type: functional, cell-based
SMMC-7721 [17] = test: Effect on ODC expression in human SMMC7721 cells at 5 to 20 uM after 24 hrs by Western blot analysis; type: functional, cell-based
SMMC-7721 [18] = test: Effect on SSAT expression in human SMMC7721 cells at 5 to 20 uM after 24 hrs by Western blot analysis; type: functional, cell-based
HepG2 [19] = test: Effect on putrescine levels in human HepG2 cells at 20 uM after 24 hrs by HPLC analysis; type: functional, cell-based
HepG2 [20] = test: Effect on spermine levels in human HepG2 cells at 20 uM after 24 hrs by HPLC analysis; type: functional, cell-based
SMMC-7721 [21] = test: Effect on putrescine levels in human SMMC7721 cells at 20 uM after 24 hrs by HPLC analysis; type: functional, cell-based
[22] = Drug localization in human HepG2 cell membranes at 10 uM after 8 hrs by DiO-staining based microscopic analysis; type: ADME
[23] = Drug localization in human HepG2 cell nucleus at 10 uM after 8 hrs by propidium iodide-staining based microscopic analysis; type: ADME
[24] = Drug localization in human HepG2 cell lysosomes at 10 uM after 8 hrs by Lyso tracker-staining based confocal microscopic analysis; type: ADME, Lysosome
[25] = Drug localization in human HepG2 cell endoplasmic reticulum at 10 uM after 8 hrs by ER tracker-staining based confocal microscopic analysis; type: ADME
[26] = Drug localization in human HepG2 cell golgi apparatus at 10 uM after 8 hrs by Golgi tracker-staining based confocal microscopic analysis; type: ADME
HepG2 [27] = test: Disruption of mitochondrial membrane potential in human HepG2 cells at 20 uM after 24 hrs by Rhodamine123 staining-based flow cytometry; type: functional, cell-based
HepG2 [28] = test: Induction of apoptosis in human HepG2 cells assessed as increase in apoptotic cells up to 20 uM after 24 hrs by AO/EB double staining based flow cytometric analysis; type: functional, cell-based
HepG2 [29] = test: Induction of apoptosis in human HepG2 cells assessed as necrotic cells at 20 uM after 24 hrs by Annexin V-FITC/propidium iodide staining based flow cytometric analysis (reference value: 2.99 %); type: functional
HepG2 [30] = test: Induction of apoptosis in human HepG2 cells assessed as up-regulation of caspase 3 expression up to 20 uM after 24 hrs by Western blot analysis; type: functional, cell-based
HepG2 [31] = test: Induction of intracellular ROS generation in human HepG2 cells at 20 uM after 8 hrs by DCFH-DA staining based HCS analysis relative to control; type: functional
[32] = Induction of intracellular ROS generation in human QSG7701 cells at 20 uM after 8 hrs by DCFH-DA staining based HCS analysis relative to control; type: cell-based; settings: qsg7701, 8 h
HepG2 [33] = test: Induction of H2O2 production in human HepG2 cells; type: functional, cell-based
HepG2 [34] = test: Induction of ROS generation in human HepG2 cells at 20 uM after 24 hrs in presence of NAC by DCFH-DA-staining based HCS analysis; type: functional, cell-based
HepG2 [35] = test: Induction of ROS generation in human HepG2 cells at 20 uM after 24 hrs in presence of TOC by DCFH-DA-staining based HCS analysis; type: functional, cell-based
HepG2 [36] = test: Induction of ROS generation in human HepG2 cells at 20 uM after 24 hrs in presence of CAT by DCFH-DA-staining based HCS analysis; type: functional, cell-based
HepG2 [37] = test: Antiproliferative activity against human HepG2 cells assessed as reduction in cell viability at 20 uM pre-treated with NAC after 48 hrs by MTT assay; type: functional, cell-based
HepG2 [38] = test: Antiproliferative activity against human HepG2 cells assessed as reduction in cell viability at 20 uM pre-treated with CAT after 48 hrs by MTT assay; type: functional, cell-based
SMMC-7721 [39] = test: Antiproliferative activity against human SMMC7721 cells assessed as reduction in cell viability at 20 uM pre-treated with NAC after 48 hrs by MTT assay; type: functional, cell-based
SMMC-7721 [40] = test: Antiproliferative activity against human SMMC7721 cells assessed as reduction in cell viability at 20 uM pre-treated with CAT after 48 hrs by MTT assay; type: functional, cell-based
HepG2 [41] = test: Inhibition of cell migration in human HepG2 cells pretreated with NAC measured after 24 hrs by transwell assay; type: functional, cell-based
HepG2 [42] = test: Induction of p53 expression in human HepG2 cells up to 20 uM after 24 hrs by Western blot analysis relative to control; type: functional, cell-based
HepG2 [43] = test: Induction of superoxide production in human HepG2 cells at 20 uM after 24 hrs by microplate reader based assay; type: functional, cell-based
HepG2 [44] = test: Induction of p53 expression in human HepG2 cells up to 20 uM after 24 hrs by immunofluoresence assay relative to control; type: functional, cell-based

## Cl.Cl.NCCCCNCCCCN1C(=O)c2cccc3c(-c4cc(=O)c5ccccc5o4)ccc(c23)C1=O
SMMC-7721 [1]
  IC50: 14.1 µM
HepG2 [2]
  IC50: 10.3 µM
[3]
  IC50: > 50 µM
SMMC-7721 [4]
  Activity: Active
HepG2 [5]
  Activity: Active
SMMC-7721 [6]
  Activity: Active
[7]
  Activity: Non-Toxic
SMMC-7721 [8]
  Activity: Dose-dependent effect
Mus musculus [9]
  Activity: Non-Toxic
Mus musculus [10]
  Activity: Non-Toxic
Mus musculus [11]
  Activity: Non-Toxic
[12]
  Drug uptake: Tde
[13]
  Drug uptake: Tde
HepG2 [14]
  Activity: Active
HepG2 [15]
  Activity: inactive
HepG2 [16]
  Activity: inactive
SMMC-7721 [17]
  Activity: inactive
SMMC-7721 [18]
  Activity: inactive
HepG2 [19]
  Activity: inactive
HepG2 [20]
  Activity: inactive
SMMC-7721 [21]
  Activity: inactive
[22]
  Drug uptake: Not Active
[23]
  Drug uptake: Not Active
[24]
  Drug uptake: Not Active
[25]
  Drug uptake: Not Active
[26]
  Drug uptake: Not Active
HepG2 [27]
  Activity: Active
HepG2 [28]
  Activity: Dose-dependent effect
HepG2 [29]
  Activity: 8.91%
HepG2 [30]
  Activity: Active
HepG2 [31]
  fold change (FC): 2.6
[32]
  Activity: Non-Toxic
HepG2 [33]
  Activity: Active
HepG2 [34]
  Activity: inactive
HepG2 [35]
  Activity: inactive
HepG2 [36]
  Activity: inactive
HepG2 [37]
  Activity: inactive
HepG2 [38]
  Activity: inactive
SMMC-7721 [39]
  Activity: inactive
SMMC-7721 [40]
  Activity: inactive
HepG2 [41]
  inhibition: inactive
HepG2 [42]
  Activity: Dose-dependent effect
HepG2 [43]
  Activity: Active
HepG2 [44]
  Activity: Dose-dependent effect
